Assay results published in patent US20150299188A1, “HETEROCYCLIC COMPOUND” (priority 2012, published 2015).

Tested on: FLAP (5-lipoxygenase activating protein)
Assay: In vitro binding test: displacement of [3H]-7-chloro-3-(5-((3-fluoropyridin-2-yl)methoxy)-2-methylphenyl)-3,4-dihydroquinazolin-2(1H)-one from Sf9 microsome fractions
Parameters: species or system human and mouse
Settings: Sf9 microsome fractions expressing FLAP; 100% = radioligand binding with 10 μM sodium 3-(3-(tert-butylsulfanyl)-1-(4-chlorobenzyl)-5-isopropyl-1H-indol-2-yl)-2,2-dimethylpropanoate, 0% = DMSO; test compound concentration not given
Summary of the method: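 Sf9 microsomes expressing human or mouse FLAP (2 μg/mL) preincubated with compound 10 min at room temperature, then 120 nM tritiated quinazolinone ligand added for 60 min; buffer 100 mM Tris-HCl pH 7.5 with NaCl, EDTA, DTT, glycerol, Tween20. Bound ligand filtered and counted by scintillation; 10 μM indole propanoate defines 100% inhibition, DMSO 0%.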

First: Cc1cc2c(cc1N1Cc3c(cc(-c4ccnn4C)nc3C3CC3)NC1=O)OC(c1ncccc1F)CC2 (stereo not drawn) [Example 93, 5-cyclopropyl-3-(2-(3-fluoropyridin-2-yl)-6-methyl-3,4-dihydro-2H-chromen-7-yl)-7-(1-methyl-1H-pyrazol-5-yl)-3,4-dihydropyrido[4,3-d]pyrimidin-2(1H)-one]
Second: Cc1cc2c(cc1N1Cc3c(cc(C4CC4)nc3C3CC3)NC1=O)OC(c1ncccc1F)CC2 (stereo not drawn) [Example 52, 5,7-dicyclopropyl-3-(2-(3-fluoropyridin-2-yl)-6-methyl-3,4-dihydro-2H-chromen-7-yl)-3,4-dihydropyrido[4,3-d]pyrimidin-2(1H)-one]
The “inhibitory rate (%)” value of the first is lower: 112% for the first, 115% for the second.

Compared with Cc1ccc(OCc2c(F)cccc2F)cc1N1Cc2c(CO)cccc2NC1=O [Example 195, 3-(5-((2,6-difluorobenzyl)oxy)-2-methylphenyl)-5-(hydroxymethyl)-3,4-dihydroquinazolin-2(1H)-one], Cc1ccc(OCc2c(F)cccc2F)cc1N1Cc2[nH]ncc2NC1=O [Example 309, 6-(5-((2,6-difluorobenzyl)oxy)-2-methylphenyl)-1,4,6,7-tetrahydro-5H-pyrazolo[4,3-d]pyrimidin-5-one] is lower in “inhibitory rate (%)” value: 97% for the first, 51% for the second.

Going from Cc1ccc(OCc2cccc(F)c2F)cc1N1Cc2ccc(C(C)(C)O)cc2NC1=O [Example 203, 3-(5-((2,3-difluorobenzyl)oxy)-2-methylphenyl)-7-(2-hydroxypropan-2-yl)-3,4-dihydroquinazolin-2(1H)-one] to CC(C)(O)c1ccc2c(c1)NC(=O)N(c1cc(OCc3c(F)cccc3F)ccc1Cc1ccccc1)C2 [Example 254, 3-(2-benzyl-5-((2,6-difluorobenzyl)oxy)phenyl)-7-(2-hydroxypropan-2-yl)-3,4-dihydroquinazolin-2(1H)-one], the “inhibitory rate (%)” value rises from 81% to 98%.

First: O=C1Nc2c(N3CCCC3)ncc(Cl)c2CN1c1cc2c(cc1Cl)CCC(c1ncccc1F)O2 (stereo not drawn) [Example 153, 5-chloro-3-(6-chloro-2-(3-fluoropyridin-2-yl)-3,4-dihydro-2H-chromen-7-yl)-8-(pyrrolidin-1-yl)-3,4-dihydropyrido[3,4-d]pyrimidin-2(1H)-one]
Second: O=C1Nc2c(N3CCC(O)CC3)ncc(Cl)c2CN1c1cc2c(cc1Cl)CCC(c1ncccc1F)O2 (stereo not drawn) [Example 109, 5-chloro-3-(6-chloro-2-(3-fluoropyridin-2-yl)-3,4-dihydro-2H-chromen-7-yl)-8-(4-hydroxypiperidin-1-yl)-3,4-dihydropyrido[3,4-d]pyrimidin-2(1H)-one]
The “inhibitory rate (%)” value of the first is lower: 104% for the first, 106% for the second.

First: CCCCOC(=O)/C=C/c1ccc(OCc2ncccc2F)cc1N1Cc2ccccc2NC1=O [Example 225, butyl (2E)-3-(4-((3-fluoropyridin-2-yl)methoxy)-2-(2-oxo-1,4-dihydroquinazolin-3(2H)-yl)phenyl)acrylate]
Second: O=C(CCc1ccc(OCc2ncccc2F)cc1N1Cc2ccccc2NC1=O)NC1CC1 [Example 280, N-cyclopropyl-3-(4-((3-fluoropyridin-2-yl)methoxy)-2-(2-oxo-1,4-dihydroquinazolin-3(2H)-yl)phenyl)propanamide]
The “inhibitory rate (%)” value of the first is higher: 100% for the first, 62% for the second.

Compared with O=C(NCC(F)F)c1cc2c(c(C3CC3)n1)CN(c1cc3c(cc1Cl)CCC(c1ncccc1F)O3)C(=O)N2 (stereo not drawn) [Example 147, 3-(6-chloro-2-(3-fluoropyridin-2-yl)-3,4-dihydro-2H-chromen-7-yl)-5-cyclopropyl-N-(2,2-difluoroethyl)-2-oxo-1,2,3,4-tetrahydropyrido[4,3-d]pyrimidine-7-carboxamide], O=C(NCC(F)(F)F)c1cc2c(c(C3CC3)n1)CN(c1cc3c(cc1Cl)CCC(c1ncccc1F)O3)C(=O)N2 (stereo not drawn) [Example 149, 3-(6-chloro-2-(3-fluoropyridin-2-yl)-3,4-dihydro-2H-chromen-7-yl)-5-cyclopropyl-2-oxo-N-(2,2,2-trifluoroethyl)-1,2,3,4-tetrahydropyrido[4,3-d]pyrimidine-7-carboxamide] is higher in “inhibitory rate (%)” value: 104% for the first, 107% for the second.

Compared with O=C1Nc2ccnc(N3CCOCC3)c2CN1c1cc2c(cc1Cl)CCC(c1ncccc1F)O2 (stereo not drawn) [Example 58, 3-(6-chloro-2-(3-fluoropyridin-2-yl)-3,4-dihydro-2H-chromen-7-yl)-5-(morpholin-4-yl)-3,4-dihydropyrido[4,3-d]pyrimidin-2(1H)-one], O=C1Nc2c(C3CC3)ncc(Cl)c2CN1c1cc2c(cc1Cl)CCC(c1ncccc1F)O2 (stereo not drawn) [Example 143, 5-chloro-3-(6-chloro-2-(3-fluoropyridin-2-yl)-3,4-dihydro-2H-chromen-7-yl)-8-cyclopropyl-3,4-dihydropyrido[3,4-d]pyrimidin-2(1H)-one] is lower in “inhibitory rate (%)” value: 117% for the first, 89% for the second.

Going from Cc1ccc(OCc2ncccc2F)cc1-n1c(=O)[nH]c2ccncc2c1=O [Example 369, 3-(5-((3-fluoropyridin-2-yl)methoxy)-2-methylphenyl)pyrido[4,3-d]pyrimidine-2,4(1H,3H)-dione] to Cc1ccc(OCc2ncccc2Br)cc1-n1c(=O)[nH]c2ccccc2c1=O [Example 371, 3-(5-((3-bromopyridin-2-yl)methoxy)-2-methylphenyl)quinazoline-2,4(1H,3H)-dione], the “inhibitory rate (%)” value falls from 106% to 96%.

First: Cc1cc2c(cc1N1Cc3c(Cl)cnc(-c4ccoc4)c3NC1=O)OC(c1ncccc1F)CC2 (stereo not drawn) [Example 164, 5-chloro-3-(2-(3-fluoropyridin-2-yl)-6-methyl-3,4-dihydro-2H-chromen-7-yl)-8-(3-furyl)-3,4-dihydropyrido[3,4-d]pyrimidin-2(1H)-one]
Second: Cc1cc2c(cc1N1Cc3c(ccnc3-c3ncco3)NC1=O)OC(c1ncccc1F)CC2 (stereo not drawn) [Example 46, 3-(2-(3-fluoropyridin-2-yl)-6-methyl-3,4-dihydro-2H-chromen-7-yl)-5-(1,3-oxazol-2-yl)-3,4-dihydropyrido[4,3-d]pyrimidin-2(1H)-one]
The “inhibitory rate (%)” value of the first is lower: 102% for the first, 104% for the second.

Going from Cc1noc(-c2cc3c(c(C4CC4)n2)CN(c2cc4c(cc2Cl)CCC(c2ncccc2F)O4)C(=O)N3)n1 (stereo not drawn) [Example 121, 3-(6-chloro-2-(3-fluoropyridin-2-yl)-3,4-dihydro-2H-chromen-7-yl)-5-cyclopropyl-7-(3-methyl-1,2,4-oxadiazol-5-yl)-3,4-dihydropyrido[4,3-d]pyrimidin-2(1H)-one] to O=C(c1cc2c(c(C3CC3)n1)CN(c1cc3c(cc1Cl)CCC(c1ncccc1F)O3)C(=O)N2)N1CC2(COC2)C1 (stereo not drawn) [Example 137, 3-(6-chloro-2-(3-fluoropyridin-2-yl)-3,4-dihydro-2H-chromen-7-yl)-5-cyclopropyl-7-(2-oxa-6-azaspiro[3.3]hept-6-ylcarbonyl)-3,4-dihydropyrido[4,3-d]pyrimidin-2(1H)-one], the “inhibitory rate (%)” value falls from 111% to 104%.

With Cc1cc2c(cc1N1Cc3c(cc(-n4cc(C(F)(F)F)cn4)nc3C3CC3)NC1=O)OC(c1ncccc1F)CC2 (stereo not drawn) [Example 154, 5-cyclopropyl-3-(2-(3-fluoropyridin-2-yl)-6-methyl-3,4-dihydro-2H-chromen-7-yl)-7-(4-(trifluoromethyl)-1H-pyrazol-1-yl)-3,4-dihydropyrido[4,3-d]pyrimidin-2(1H)-one] the “inhibitory rate (%)” value was 100%.
